Data reported in the supplement of paper PMC9151546.
Structures can show the parent of a compound that is named as a salt.

Experiments:
CHO-K1 [1] = test: benchmark concentration for 60% increase in hypodiploid frequency (BMC60); higher = less potent aneugen
Method: (§1)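 Benchmark concentration modelling (PROAST, Hill/exponential model families) of the 19-concentration flow-cytometric micronucleus assay in CHO-K1 cells, with and without rat liver S9. Only non-cytotoxic and adequate (relative survival >=40%) concentrations were used. BMR was a 30% increase in %MN (BMC30) or a 60% increase in %hypodiploid (BMC60) over control.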

CHO-K1 [2] = test: benchmark concentration for 30% increase in micronucleus frequency (BMC30); higher = less potent clastogen
Method: as §1

[3] = S9 metabolic activation: without S9
[4] = S9 metabolic activation: with S9

Compound	benchmark concentration (CHO-K1 [1]; [3])	benchmark concentration (CHO-K1 [2]; [3])	benchmark concentration (CHO-K1 [2]; [4])	benchmark concentration (CHO-K1 [1]; [4])
ClCC(Cl)CCl [1,2,3-Trichloropropane]	72 µM	46 µM		
Cc1cccc([N+](=O)[O-])c1C [1,2-Dimethyl-3-nitrobenzene]	38 µM	41 µM	59 µM	
c1ccc(NNc2ccccc2)cc1 [1,2-Diphenylhydrazine]	68 µM	46 µM	22 µM	45 µM
CC(O)CO (stereo unspecified) [1,2-Propylene glycol]	44 µM	130 µM		
CC1(C)C(=O)N(Cl)C(=O)N1Cl [1,3-Dichloro-5,5-dimethylhydantoin]	55 µM	31 µM		
NC(=Nc1ccccc1)Nc1ccccc1 [1,3-Diphenylguanidine]	67 µM	78 µM		
O=S1(=O)CCCO1 [1,3-Propane sultone]	80 µM	110 µM		
Nc1cccc2c(N)cccc12 [1,5-Naphthalenediamine]	66 µM		8.6 µM	
Cc1cccc2ccccc12 [1-Methylnaphthalene]	110 µM	57 µM		
Oc1cc(Cl)c(Cl)cc1Cl [2,4,5-Trichlorophenol]	38 µM		6.5 µM	
Oc1ccc(Cl)cc1Cl [2,4-Dichlorophenol]	20 µM	17 µM	17 µM	
O=[N+]([O-])c1ccc(O)c([N+](=O)[O-])c1 [2,4-Dinitrophenol]	49 µM	86 µM		
Cc1ccc(C)c(O)c1 [2,5-Dimethylphenol]	39 µM	37 µM		
Cc1cccc(C)c1O [2,6-Dimethylphenol]	110 µM	87 µM		
CCC(C)c1ccccc1O (stereo unspecified) [2-(Butan-2-yl)phenol]	170 µM		23 µM	30 µM
Nc1ccc2c(c1)C(=O)c1ccccc1C2=O [2-Aminoanthraquinone]	29 µM		8.1 µM	22 µM
COc1ccccc1N [2-Anisidine]	120 µM	46 µM		
O=C(CCl)c1ccccc1 [2-Chloroacetophenone]			60 µM	62 µM
OCCCl [2-Chloroethanol]	130 µM	60 µM		
COc1ccc(C)cc1N [2-Methoxy-5-methylaniline]	89 µM	48 µM		
Cc1ccccc1N [2-Methylaniline]	49 µM	21 µM		
Nc1ccc2ccccc2c1 [2-Naphthylamine]	47 µM	51 µM		43 µM
CC(C)(c1cc(Br)c(O)c(Br)c1)c1cc(Br)c(O)c(Br)c1 [3,3',5,5'-Tetrabromobisphenol A]	37 µM	44 µM		28 µM
Cc1cc(-c2ccc(N)c(C)c2)ccc1N [3,3'-Dimethylbenzidine]	20 µM	99 µM		
Cc1ccc(O)cc1C [3,4-Dimethylphenol]	74 µM	120 µM		

Compound	benchmark concentration (CHO-K1 [1]; [3])	benchmark concentration (CHO-K1 [2]; [3])	benchmark concentration (CHO-K1 [2]; [4])	benchmark concentration (CHO-K1 [1]; [4])
OCCCBr [3-Bromo-1-propanol]	73 µM	110 µM		
Cc1cc(Cc2ccc(N)c(C)c2)ccc1N [4,4'-Methylenebis(2-methylaniline)]	33 µM	37 µM		
CN(C)c1ccc(Cc2ccc(N(C)C)cc2)cc1 [4,4'-Methylenebis(N,N-dimethylaniline)]	38 µM		56 µM	75 µM
Nc1ccc(Oc2ccc(N)cc2)cc1 [4,4'-Oxydianiline]	31 µM	60 µM		
CCC(C)(C)c1ccc(O)cc1 [4-(2-Methylbutan-2-yl)phenol]	140 µM		81 µM	
Cc1cc(O)ccc1Cl [4-Chloro-3-methylphenol]	46 µM	41 µM	18 µM	
Nc1ccc(Cl)cc1 [4-Chloroaniline]	31 µM	63 µM		
CC(C)(c1ccccc1)c1ccc(O)cc1 [4-Cumylphenol]	44 µM	26 µM		
Nc1ccc([N+](=O)[O-])cc1 [4-Nitroaniline]	100 µM	11 µM		
O=C1NC(=O)C(c2ccccc2)(c2ccccc2)N1 [5,5-Diphenylhydantoin]	17 µM	13 µM		
O=c1[nH]cc(F)c(=O)[nH]1 [5-Fluorouracil]	99 µM	110 µM		
CCCCCCCC1CCC(=O)O1 (stereo unspecified) [5-Heptyldihydro-2(3H)-furanone]	79 µM	75 µM		
Cc1cc(=O)[nH]c(=S)[nH]1 [6-Methyl-2-thiouracil]	57 µM	< 4.5 µM		83 µM
Cc1ccc2ncccc2c1 [6-Methylquinoline]	120 µM		22 µM	51 µM
Nc1nc(=S)c2[nH]cnc2[nH]1 [6-Thioguanine]		< 4.5 µM	33 µM	74 µM
C#C[C@]1(O)CC[C@H]2[C@@H]3CCc4cc(O)ccc4[C@H]3CC[C@@]21C [17alpha-Ethinylestradiol]	< 4.5 µM		58 µM	
CCOCN(C(=O)CCl)c1c(C)cccc1CC [Acetochlor]		39 µM	79 µM	
C=CC(N)=O [Acrylamide]			47 µM	
COCCOCCOC [Bis(2-methoxyethyl) ether]			72 µM	
CS(=O)(=O)OCCCCOS(C)(=O)=O [Busulfan]		19 µM		
CCCCCCCCCCCCCCCS(=O)(=O)Oc1ccccc1 [C10-21 sulfonic acids phenyl esters]		130 µM		
CCOC(=O)C(O)(c1ccc(Cl)cc1)c1ccc(Cl)cc1 [Chlorobenzilate]		47 µM		
CN(C)CCCN1c2ccccc2Sc2ccc(Cl)cc21 [Chlorpromazine hydrochloride]		23 µM		
C[C@@H]1C[C@@H]([C@H](O)CC2CC(=O)NC(=O)C2)C(=O)[C@@H](C)C1 [Cycloheximide]			< 4.5 µM	
O=P1(N(CCCl)CCCl)NCCCO1 (stereo unspecified) [Cyclophosphamide monohydrate]		91 µM		

Compound	benchmark concentration (CHO-K1 [1]; [3])	benchmark concentration (CHO-K1 [2]; [3])	benchmark concentration (CHO-K1 [2]; [4])	benchmark concentration (CHO-K1 [1]; [4])
CCCCC(CC)COC(=O)CCCCC(=O)OCC(CC)CCCC (stereo unspecified) [Di(2-ethylhexyl) adipate]		76 µM		
c1ccc2c(c1)oc1ccccc12 [Dibenzofuran]			33 µM	
CC(C)(OOC(C)(C)c1ccccc1)c1ccccc1 [Dicumyl peroxide]		5.5 µM	88 µM	
OCCOCCO [Diethylene glycol]		79 µM		
CCC(C)c1cc([N+](=O)[O-])cc([N+](=O)[O-])c1O (stereo unspecified) [Dinoseb]		49 µM		
CCOc1ccc2c(c1)C(C)=CC(C)(C)N2 [Ethoxyquin]		55 µM	86 µM	
CCOC(=O)c1ccc(O)cc1 [Ethylparaben]		70 µM		
O=Cc1ccco1 [Furfural]		130 µM		
O=c1c(-c2ccc(O)cc2)coc2cc(O)cc(O)c12 [Genistein]		10 µM		
O=CCCCC=O [Glutaraldehyde]		28 µM		
OCC1CO1 (stereo unspecified) [Glycidol]		99 µM		
ClC1=C(Cl)C(Cl)(Cl)C(Cl)=C1Cl [Hexachlorocyclopentadiene]		< 4.5 µM	23 µM	
O=C1C2(Cl)C3(Cl)C4(Cl)C(Cl)(Cl)C5(Cl)C3(Cl)C1(Cl)C5(Cl)C24Cl (stereo unspecified) [Kepone]		30 µM	53 µM	
CC(=O)N1CCN(c2ccc(OCC3COC(Cn4ccnc4)(c4ccc(Cl)cc4Cl)O3)cc2)CC1 (stereo unspecified) [Ketoconazole]			54 µM	
CCCN(CCC)N=O [N-Nitrosodipropylamine]			20 µM	
O=[N+]([O-])c1ccc(Oc2ccc(Cl)cc2Cl)cc1 [Nitrofen]		77 µM		
CCCCCCCCn1sccc1=O [Octhilinone]		< 4.5 µM		
O=S(=O)(O)C(F)(F)C(F)(F)C(F)(F)C(F)(F)C(F)(F)C(F)(F)C(F)(F)C(F)(F)F [PFOS]		18 µM		
O=C1OC(c2ccc(O)cc2)(c2ccc(O)cc2)c2ccccc21 [Phenolphthalein]		22 µM		
CCCOC(=O)c1cc(O)c(O)c(O)c1 [Propyl gallate]		17 µM	24 µM	
CCCOC(=O)c1ccc(O)cc1 [Propylparaben]			37 µM	
O=C(c1ccc(OCCN2CCCCC2)cc1)c1c(-c2ccc(O)cc2)sc2cc(O)ccc12 [Raloxifene hydrochloride]		28 µM	70 µM	
O=C(O)c1cc(/N=N/c2ccc(S(=O)(=O)Nc3ccccn3)cc2)ccc1O [Sulfasalazine]		65 µM		
Oc1cc(Cl)ccc1Oc1ccc(Cl)cc1Cl [Triclosan]			40 µM	
CCOC(N)=O [Urethane]			32 µM	
